Test results: US20250064889A1, “TRPV6 INHIBITORS AND COMBINATION THERAPIES FOR TREATING CANCERS” (Soricimed Biopharma Inc., priority 2017, published 2025)

Experiments:
Human total Bel-2 = test: Human Total Bcl-2 sandwich ELISA on BxPC-3 cells; format: cell-based; settings: 500 μM, at 96 hrs, p<0.05
Method: (§1) • Drug Dosing: Cells were plated at 5×10^5 cells/well in a 6-well plate. After 24 hrs incubation the BxPC-3 cells were dosed daily with NT (s.f. PBS) or 500 μM SOR-C13 (prepared fresh daily in f.s. PBS) for 72 hrs. Once dosed cells were incubated at 37° C./5% CO2 for the duration dosing period of 72 hrs. Dosing was repeated every 24 hrs for 72 hrs. Every 24 hrs protein lysates (RIPA) were prepared from cells and de-salted (7 kDa MWCO, Zebra spin columns, Fisher). Bel-2 assay was a 96 hrs dosing parameter. • Plate Assay (Calnr): Cellular Calcineurin concentration was monitored at 620 nm using the Calcineurin Cellular (PP2B) Phosphate Activity Assay kit (EMD Millipore). Results were interpolated from standard curve for amount of Phosphate released. • Plate Assay (Bcl-2): Human total Bel-2 concentration was performed using DuoSet® Human Total BcL-2 sandwich ELISA (R&D Systems). Bel-2 concentration for BxPC-3 cells was extrapolated from (4-PL) standard curve Bel-2.

[1] = system: NFAT signalling molecular pathway targets (Calnr, Bel-2, ATX, MMP-9 and NFAT); test: In vitro dosing experiments, NFAT signalling molecular pathway targets (summary); format: cell-based
Method: (§2) • Transfection: T-47D cells were plated at 1×10^4 cells/well in a 96-well plate and cultured overnight. Cells were transfected for 24 hrs at 37° C./5% CO2 using Liptofectamine 3000 (0.3 μL/well)/P3000 Reagent (1 μL/well) in Opti-MEM medium and with a 500 ng of NFAT dual reporter plasmid (Cignal NFAT Reporter, Qiagen). • Drug Dosing: After transfection the T-47D cells were dosed daily with NT (s.f. PBS) or 500 μM SOR-C13 (prepared fresh daily in f.s. PBS) for 72 hrs. Once dosed the 96-well plate was incubated at 37° C./5% CO2 for the duration dosing period of 72 hrs. Dosing was repeated every 24 hrs for 72 hrs. • Plate Assay: Luminescence was monitored using Dual-Glo® Luciferase assay (Promega) to measure changes in NFAT luminescence expression (related to pKC pathway) between PBS and SOR-C13 treated T-47D cells. Firefly and Renilla Luminescence was measured using a molecular devices microplate reader.
• Drug Dosing: Cells were plated at 5×10^5 cells/well in a 6-well plate. After 24 hrs incubation the BxPC-3 cells were dosed daily with NT (s.f. PBS) or 500 μM SOR-C13 (prepared fresh daily in f.s. PBS) for 72 hrs. […] Bel-2 assay was a 96 hrs dosing parameter. • Plate Assay (Calnr): Cellular Calcineurin concentration was monitored at 620 nm using the Calcineurin Cellular (PP2B) Phosphate Activity Assay kit (EMD Millipore). […]

[2] = system: T-47D breast cancer cell lines; test: RT-qPCR TaqMan Array, 187 gene panel, T-47D cells treated with SOR-C13; format: cell-based; settings: 500 μM for 120 hrs, genes with >1.5 fold change
Method: • mRNA Expression: The expression NFAT/Ca^2+ related genes mRNA levels were determined in 6 Cancer Cell lines treated with SOR-C13 (500 μM) for 120 hrs using a qPCR TaqMan® Array panel consisting of 187 genes (ThermoFisher). Cells were harvested with lysis buffer from the PureLink RNA Mini Kit and then RNA isolation carried out as per manufacturers instructions (ThermoFisher Scientific). RNA was quantified using the Qubit Fluorometer. Reverse Transcription was performed and cDNA created using SuperScript™ IV VILO Master Mix with ezDNase Enzyme (ThermoFisher Scientific). Each port of the Custom TaqMan® Array Card was loaded with 500 ng of cDNA and 1× TaqMan Fast Advanced Master Mix. RT-qPCR was performed using the Quantstudio™ 7Flex and analysis performed by ThermoFisher cloud software using GUSB and HRPT1 as endogenous controls.

NFAT activation = test: In vitro NFAT analysis: NFAT dual reporter luciferase assay in T-47D cells; format: cell-based; settings: 500 μM daily for 72 hrs, p<0.05
Method: as §2

[3] = system: BxPC-3 pancreatic cancer cells; test: Combination with immune checkpoint modulator: BxPC-3 cells co-incubated with activated Jurkat cells, viability and IL-2; format: cell-based; settings: BxPC-3 pre-treated with INF-γ, 100 μM SOR-C13 48 hours
Method: Experiments are performed to evaluate the effect of TRPV6 inhibitors in combination with immune checkpoint modulators such as PD-1 inhibitors (see Yang et al., Invest Ophthalmol Vis Sci. 2008 June; 49(6): 2518-2525; and FIG. 2). Briefly, BxPC-3 pancreatic cancer cells are treated with INF-γ for 48 hours to induce the cell surface expression of PD-L1. Once activated, sets of BxPC-3 cells are treated with 0 or 100 μM of SOR-C13 (KEFLHPSKVDLPR; SEQ ID NO:2) for 48 hours. Immune checkpoint modulatory test agents such as pembrolizumab (KEYTRUDA*) are added at various concentrations, along with activated Jurkat cells (i.e., cytotoxic T-cells), and co-incubated with the BxPC-3 cells for 48 hours.
Viability and IL-2 production is determined 48 hours later. Activated Jurkat cells produce IL-2 which mediates the killing of BxPC-3 cells. Cell death is quantified using the Cell Titre Glow Cellular Viability Assay. The effect of SOR-C13 on IL-2 mediated killing of BxPC-3 cells is compared to IL-2 mediated killing of BxPC-3 cells in the absence of SOR-C13.

[4] = Fu et al. 2017; cited from earlier work
MMP-9 = MMP-9 Cytoglow ELISA on BxPC-3 cells; format: cell-based; settings: BxPC-3 cells treated for 96 hr daily at 100 and 500 μM, p<0.05
Method: • Drug Dosing: BxPC-3 cells were plated at 2×10^4 cells/well in a 96-well plate and cultured overnight. Cells were dosed daily with NT (s.f. PBS) 100, 500 μM SOR-C13 (prepared fresh daily in f.s. PBS) for 96 hrs. Dosing was repeated every 24 hrs for 96 hrs. • Plate Assay: MMP-9 concentration was monitored using the MMP-9 Cytoglow ELISA (Assay Biotech). Cells were fixed to plate, and ELISA was performed, MMP-9 expression was calculated as % of No Treatment control.

calcineurin = test: Calcineurin Cellular (PP2B) Phosphate Activity Assay on BxPC-3 cell lysates; format: cell-based; settings: 500 μM, at 24 hrs and 72 hrs, p<0.05
Method: as §1

Q: For KEFLHPSKVDLPR [SOR-C13], which Bel-2 expression (Human total Bel-2) is on record?
A: significant decrease

Q: And the “NFAT signalling molecular pathway targets (Calnr, Bel-2, ATX, MMP-9 and NFAT) with treatment” value [1]?
A: decreases

Q: What about the “NFATC1, MMP2, GSK3 and RCAN1 mRNA expression (Calcineurin/NFAT pathway)” value [2] of the same sequence?
A: affected

Q: What about the “NFAT activation, SOR-C13-treated cells vs. PBS” value (NFAT activation) of the same sequence?
A: significant difference

Q: What about the “anti-cancer activity of immune checkpoint modulators such as pembrolizumab on addition of SOR-C13” value [3] of the same sequence?
A: increases

Q: And the anti-tumour activity [4]?
A: promising anti-tumour activity

Q: What about the “tolerability and safety profile” value [4] of the same sequence?
A: good tolerability and manageable safety profile

Q: What about the “MMP-9 expression, % from PBS control” value (MMP-9) of the same sequence?
A: reduction

Q: What about the calcineurin activity (calcineurin) of the same sequence?
A: inhibition
